Data taken from patent US7985755B2, “2,4-diaminoquinazolines for spinal muscular atrophy” (Families of Spinal Muscular Atrophy, priority 2006, dated 2011).
Counter-ions that a name gives are not always drawn. Like-named read-outs stand apart in the source and are kept apart here.

Tested on: SMN2 promoter
Assay: SMN2 promoter assay in NSC-34 cells (β-lactamase reporter)
Assay type: cell-based, mouse
Source text: All compounds were screened using an in vitro based SMN2 promoter assay. We used NSC-34 cells, a hybrid cell line between mouse spinal cord cells and mouse neuroblastoma cells. NSC-34 cells harbor an expression plasmid containing a 3.4 kb promoter fragment of the SMN2 gene driving β-lactamase expression.
[…] […] CCF2-AM diffuses across the plasma membrane and is converted into an active β-lactamase substrate by cytoplasmic esterase. […] The fold induction is proportional to the extent of β-lactamase produced and in turn proportional to SMN2 promoter activation for a given compound relative to vehicle (DMSO) control. […] These values are used to rank activities of the compounds and derive structure activity relationship.

[1] = Mus musculus, Table 1, SMN2 promoter driving β-lactamase, 12 point dose curve, read-out: Promoter Assay EC50
[2] = Table 1, SMN2 promoter driving β-lactamase, 12 point dose curve, read-out: Promoter Assay EC50

SMILES	EC50 [2] [µM]	other results
CC(C)(C)OC(=O)N1CCN(c2cccc3nc(N)nc(N)c23)CC1 [Examplc-219, 4-(2,4-Diaminoquinazolin-5-yl)piperazine-1-carboxylic acid tert-butyl ester]		EC50 (Mus musculus, Table 4, SMN2 promoter driving β-lactamase, read-out: Promoter Assay EC50 for 2391.003C(P)): 1 to 5 µM
Nc1nc(N)c2c(OCC3CC[N+]([O-])(Cc4ccccc4F)CC3)cccc2n1 (centres unmarked) [Examplc-221]		EC50 (Mus musculus, Table 6, SMN2 promoter driving β-lactamase, read-out: Promoter Assay EC50): 1 to 5 µM
Nc1nc(N)c2c(OCC3CCN(Cc4ccc(Cl)cc4)CC3)cccc2n1 [Example-004, 5-[1-(4-Chlorobenzyl)piperidin-4-ylmethoxy]quinazoline-2,4-diamine hydrochloride]		EC50 [1]: < 1 µM
Nc1nc(N)c2c(OCC3CCN(Cc4cccc5ccccc45)CC3)cccc2n1 [Example-005]	< 1	
Nc1nc(N)c2c(OCC3CCN(Cc4ccc(F)c(F)c4)CC3)cccc2n1 [Example-011, 5-[1-(3,4-Difluorobenzyl)piperidin-4-ylmethoxy]quinazoline-2,4-diamine]		EC50 [1]: < 1 µM
Nc1nc(N)c2c(OCC3CCN(C(=O)c4ccccc4F)CC3)cccc2n1 [Example-013, [4-(2,4-Diaminoquinazolin-5-yloxymethyl)piperidin-1-yl](2-fluorophenyl)methanone]		EC50 [1]: < 1 µM
Nc1nc(N)c2c(OCC3CCN(C(=O)c4ccc5ccccc5c4)CC3)cccc2n1 [Example-018, [4-(2,4-Diaminoquinazolin-5-yloxymethyl)piperidin-1-yl]naphthalen-2-yl-methanone]		EC50 [1]: < 1 µM
Cc1ccccc1C(=O)N1CCC(COc2cccc3nc(N)nc(N)c23)CC1 [Example-019, [4-(2,4-Diaminoquinazolin-5-yloxymethyl)piperidin-1-yl]-o-tolylmethanone]		EC50 [1]: < 1 µM
Cc1cccc(C(=O)N2CCC(COc3cccc4nc(N)nc(N)c34)CC2)c1 [Example-020, [4-(2,4-Diaminoquinazolin-5-yloxymethyl)piperidin-1-yl]-m-tolylmethanone]		EC50 [1]: < 1 µM
Cc1ccc(C(=O)N2CCC(COc3cccc4nc(N)nc(N)c34)CC2)cc1 [Example-021, [4-(2,4-Diaminoquinazolin-5-yloxymethyl)piperidin-1-yl]-p-tolylmethanone]		EC50 [1]: < 1 µM
Nc1nc(N)c2c(OCC3CCN(C(=O)c4ccc(F)cc4F)CC3)cccc2n1 [Example-022, [4-(2,4-Diaminoquinazolin-5-yloxymethyl)piperidin-1-yl]-(2,4-difluorophenyl)methanone]		EC50 [1]: < 1 µM
Nc1nc(N)c2c(OCC3CCN(C(=O)c4ccc(F)c(F)c4)CC3)cccc2n1 [Example-023, [4-(2,4-Diaminoquinazolin-5-yloxymethyl)piperidin-1-yl]-(3,4-difluorophenyl)methanone]		EC50 [1]: < 1 µM
Nc1nc(N)c2c(OCC3(S(=O)(=O)c4cccc(Cl)c4)CCNCC3)cccc2n1 [Example-026, 5-[4-(3-Chlorobenzenesulfonyl)piperidin-4-ylmethoxy]quinazoline-2,4-diamine]		EC50 [1]: < 1 µM
Nc1nc(N)c2c(OCC3(S(=O)(=O)c4ccccc4Cl)CCNCC3)cccc2n1 [Example-027, 5-[4-(2-Chlorobenzenesulfonyl)piperidin-4-ylmethoxy]quinazoline-2,4-diamine]		EC50 [1]: < 1 µM
Nc1nc(N)c2c(OCC3CCN(S(=O)(=O)c4ccc(Cl)cc4)CC3)cccc2n1 [Example-028]	< 1	
Nc1nc(N)c2c(OCC3CCN(S(=O)(=O)c4cccc5ccccc45)CC3)cccc2n1 [Example-029]	< 1	
Nc1nc(N)c2c(OCC3CCN(S(=O)(=O)c4ccc5ccccc5c4)CC3)cccc2n1 [Example-030]	< 1	
Cc1ccccc1S(=O)(=O)N1CCC(COc2cccc3nc(N)nc(N)c23)CC1 [Example-031]	< 1	
Cc1cccc(S(=O)(=O)N2CCC(COc3cccc4nc(N)nc(N)c34)CC2)c1 [Example-032, 5-[1-(Toluene-3-sulfonyl)piperidin-4-ylmethoxy]quinazoline-2,4-diamine]		EC50 [1]: < 1 µM

SMILES	EC50 [2] [µM]	other results
Cc1ccc(S(=O)(=O)N2CCC(COc3cccc4nc(N)nc(N)c34)CC2)cc1 [Example-033]	< 1	
Nc1nc(N)c2c(OCC3(S(=O)(=O)c4ccc(F)c(F)c4)CCNCC3)cccc2n1 [Example-035, 5-[4-(3,4-Difluorobenzenesulfonyl)-piperidin-4-ylmethoxy]quinazoline-2,4-diamine]		EC50 [1]: < 1 µM
CC(C)(C)OC(=O)N1CCC(COc2cccc3nc(N)nc(N)c23)CC1 [Example-037]	< 1	
Nc1nc(N)c2c(OCC3CCN(C(=O)c4ccc(I)cc4)CC3)cccc2n1 [Example-040]	< 1	
Nc1nc(N)c2c(OCC3CCN(C(=O)c4ccccc4I)CC3)cccc2n1 [Example-041]	< 1	
Nc1nc(N)c2c(OCC3CCN(Cc4ccc(I)cc4)CC3)cccc2n1 [Example-044]	< 1	
COc1ccc(CC(=O)N2CCC(COc3cccc4nc(N)nc(N)c34)CC2)cc1 [Example-045]	1 to 5	
Nc1nc(N)c2c(OCC3CCN(C(=O)c4cccc(F)c4)CC3)cccc2n1 [Example-046]	< 1	
CS(=O)(=O)c1ccc(CN2CCC(COc3cccc4nc(N)nc(N)c34)CC2)cc1 [Example-047]	< 1	
CC(C)(C)C(=O)N1CCC(COc2cccc3nc(N)nc(N)c23)CC1 [Example-048]	< 1	
CC1CCC(C(=O)N2CCC(COc3cccc4nc(N)nc(N)c34)CC2)CC1 (centres unmarked) [Example-049]	< 1	
Nc1nc(N)c2c(OCC3CCN(C(=O)c4ccc(Cl)nc4)CC3)cccc2n1 [Example-051]	< 1	
Nc1nc(N)c2c(OCC3CCN(C(=O)c4cc(F)ccc4F)CC3)cccc2n1 [Example-052]	< 1	
Nc1nc(N)c2c(OCC3CCN(C(=O)c4cc(Cl)cc(Cl)c4)CC3)cccc2n1 [Example-054]	< 1	
Nc1nc(N)c2c(OCC3CCN(C(=O)c4cccs4)CC3)cccc2n1 [Example-055]	< 1	
COc1ccc(C(=O)N2CCC(COc3cccc4nc(N)nc(N)c34)CC2)cc1 [Example-056]	< 1	
Nc1nc(N)c2c(OCC3CCN(C(=O)c4ccco4)CC3)cccc2n1 [Example-057]	< 1	
Cc1cc(C(=O)N2CCC(COc3cccc4nc(N)nc(N)c34)CC2)no1 [Example-059]	< 1	

Now from value to compound, other results behind:

EC50 [2] [µM]	SMILES	other results
< 1	Nc1nc(N)c2c(OCC3CCN(C(=O)c4ccc(Cl)cc4Cl)CC3)cccc2n1 [Example-060]	
< 1	Nc1nc(N)c2c(OCC3CCN(C(=O)c4ccccc4OC(F)(F)F)CC3)cccc2n1 [Example-061]	
< 1	Nc1nc(N)c2c(OCC3CCN(C(=O)c4ccc(F)cc4)CC3)cccc2n1 [Example-062]	
< 1	Nc1nc(N)c2c(OCC3CCN(C(=O)c4ccc(OC(F)(F)F)cc4)CC3)cccc2n1 [Example-063]	
< 1	CCc1ccc(C(=O)N2CCC(COc3cccc4nc(N)nc(N)c34)CC2)cc1 [Example-064]	
< 1	Nc1nc(N)c2c(OCC3CCN(C(=O)CSc4ccccc4)CC3)cccc2n1 [Example-070]	
< 1	Nc1nc(N)c2c(OCC3CCN(C(=O)c4ccc(C(F)(F)F)nc4)CC3)cccc2n1 [Example-071]	
< 1	CS(=O)(=O)N1CCC(COc2cccc3nc(N)nc(N)c23)CC1 [Example-072]	
< 1	CC(C)(C)c1ccc(S(=O)(=O)N2CCC(COc3cccc4nc(N)nc(N)c34)CC2)cc1 [Example-073]	
< 1	Nc1nc(N)c2c(OCC3CCN(S(=O)(=O)c4ccc(Cl)s4)CC3)cccc2n1 [Example-074]	
< 1	Nc1nc(N)c2c(OCC3CCN(S(=O)(=O)c4cccs4)CC3)cccc2n1 [Example-075]	
< 1	Cc1noc(C)c1S(=O)(=O)N1CCC(COc2cccc3nc(N)nc(N)c23)CC1 [Example-076]	
< 1	Nc1nc(N)c2c(OCC3CCN(S(=O)(=O)c4cccc(F)c4)CC3)cccc2n1 [Example-077]	
< 1	Nc1nc(N)c2c(OCC3CCN(S(=O)(=O)c4cccc(Cl)c4Cl)CC3)cccc2n1 [Example-078]	
< 1	Cc1ccc(F)cc1S(=O)(=O)N1CCC(COc2cccc3nc(N)nc(N)c23)CC1 [Example-079]	
< 1	COc1ccc(Cl)cc1S(=O)(=O)N1CCC(COc2cccc3nc(N)nc(N)c23)CC1 [Example-080]	
< 1	Cc1c(Cl)cccc1S(=O)(=O)N1CCC(COc2cccc3nc(N)nc(N)c23)CC1 [Example-081]	
< 1	Nc1nc(N)c2c(OCC3CCN(S(=O)(=O)c4ccc(C(F)(F)F)cc4)CC3)cccc2n1 [Example-082]	
< 1	COc1ccc(Br)cc1S(=O)(=O)N1CCC(COc2cccc3nc(N)nc(N)c23)CC1 [Example-083]	
< 1	Nc1nc(N)c2c(OCC3CCN(S(=O)(=O)c4ccc(Cl)cc4Cl)CC3)cccc2n1 [Example-084]	
< 1	Nc1nc(N)c2c(OCC3CCN(S(=O)(=O)c4c(Cl)cccc4Cl)CC3)cccc2n1 [Example-085]	
< 1	CS(=O)(=O)c1ccc(S(=O)(=O)N2CCC(COc3cccc4nc(N)nc(N)c34)CC2)cc1 [Example-086]	
< 1	Nc1nc(N)c2c(OCC3CCN(S(=O)(=O)c4ccccc4C(F)(F)F)CC3)cccc2n1 [Example-087]	
< 1	Nc1nc(N)c2c(OCC3CCN(S(=O)(=O)c4ccc(Cl)c(Cl)c4)CC3)cccc2n1 [Example-088]	
< 1	CC(C)c1ccc(S(=O)(=O)N2CCC(COc3cccc4nc(N)nc(N)c34)CC2)cc1 [Example-089]	
< 1	CC(=O)Nc1ccc(S(=O)(=O)N2CCC(COc3cccc4nc(N)nc(N)c34)CC2)cc1 [Example-090]	
< 1	Cc1noc(C)c1CN1CCC(COc2cccc3nc(N)nc(N)c23)CC1 [Example-091]	
< 1	Nc1nc(N)c2c(OCC3CCN(Cc4cc(Cl)nc(Cl)c4)CC3)cccc2n1 [Example-093]	
